“And” between values parts separate entries of the source, which are not always exact repeats. Equal entries are not always repeated.
Columns and labels:
[1] = instrument: DT, single field, calibrated with Agilent tune mix (Agilent)
[2] = instrument: DT, single field, calibrated with ESI Low Concentration Tuning Mix (Agilent)
[3] = instrument: TW, calibrated with polyalanine and drug standards

Structure (SMILES) | collision cross section (N2) ([2]; [M+Na]+) [Å²] | collision cross section (N2) ([2]; [M-H]-) [Å²] | collision cross section (N2) ([2]; [M+H]+) [Å²] | further results
O=C(O)c1cccc([O-])c1 [3-Hydroxybenzoate] | – | – | – | collision cross section (N2) ([1]; [M-H]-): 125.4 Å²
Nc1ccn([C@H]2C[C@H](O)[C@@H](COP(=O)(O)OP(=O)(O)O)O2)c(=O)n1 [2'-Deoxycytidine diphosphate] | – | – | – | collision cross section (N2) ([1]; [M+Na]+): 174.5 Å²; collision cross section (N2) ([1]; [M-H]-): 170.97 Å²
CC(=O)N[C@H]1[C@H]([C@H](O)[C@H](O)CO)O[C@](OP(=O)(O)OC[C@H]2O[C@@H](n3ccc(N)nc3=O)[C@H](O)[C@@H]2O)(C(=O)O)C[C@@H]1O [Cytidine monophosphate N-acetylneuraminic acid] | – | – | – | collision cross section (N2) ([1]; [M+Na]+): 220.7 Å²; collision cross section (N2) ([1]; [M-H]-): 215.5 Å²
Nc1ncnc2c1ncn2[C@@H]1O[C@H](COP(=O)(O)O)[C@@H](OP(=O)(O)O)[C@H]1O [ADENOSINE 3',5'-DIPHOSPHATE] | 188 | 184.3 | 183.3 | collision cross section (N2) ([2]; [M+Na-2H]-): 188.5 Å²
O=C(O)C(CO)OP(=O)(O)O (centres undefined) [2-PHOSPHOGLYCERATE] | 141.9 | 124.2 | 134.3 | collision cross section (N2) ([2]; [M+Na-2H]-): 133.1 Å²
Cc1cc2nc[nH]c2cc1C [5,6-DIMETHYLBENZIMIDAZOLE] | – | 129.9 | 130.3 | –
O=P(O)(O)OC[C@H]1OC(O)[C@H](O)[C@@H]1O (stereo partly drawn) [D-RIBOSE 5-PHOSPHATE] | 150.5 | 139.4 | – | –
C/C(=C/C(=O)O)C(=O)O [2-METHYLMALEATE] | – | 118.2 | – | –
NCCP(=O)(O)O [(2-AMINOETHYL)PHOSPHONATE] | 136.5 | 120 | 129 | –
O=C(O)CCCCCC(=O)O [6-CARBOXYHEXANOATE] | 140 | 130.9 | – | collision cross section (N2) ([2]; [M+Na-2H]-): 134.4 Å²

Second part, led by results:

collision cross section (N2) ([2]; [M+Na]+) [Å²] | collision cross section (N2) ([2]; [M-H]-) [Å²] | collision cross section (N2) ([2]; [M+H]+) [Å²] | Structure (SMILES) | further results
140.3 | 133.7 | – | CC(=O)N1CCC[C@H]1C(=O)O [N-ACETYLPROLINE] | collision cross section (N2) ([3]; [M+Na]+): 136.9 Å²
135.9 | – | 124 | C[n+]1cccc(C(=O)[O-])c1 [TRIGONELLINE] | collision cross section (N2) ([3]; [M+H]+): 122.4 Å²
153.5 | 150.5 | 149.6 | CC(=O)NCCc1c[nH]c2ccc(O)cc12 [N-ACETYLSEROTONIN] | –
– | 121.5 | – | O=C([O-])c1cc(=O)[nH]c(=O)[nH]1 [OROTATE] | –
147.2 | 141.1 | 138.7 | COC(=O)Cc1c[nH]c2ccccc12 [INDOLE-3-METHYL ACETATE] | –
176.9 | – | 171 | Cc1ncc(C[n+]2csc(CCOP(=O)(O)O)c2C)c(N)n1 [THIAMINE MONOPHOSPHATE] | collision cross section (N2) ([2]; [M+Na-2H]-): 174.3 Å² and 180.2 Å²
291.4 | – | – | CCCCCCCCCCCCCC(=O)OCC(COC(=O)CCCCCCCCCCCCC)OC(=O)CCCCCCCCCCCCC [GLYCERYL TRIMYRISTATE] | –
– | 112.6 | – | O=C(O)[C@H](O)CO [GLYCERATE] | –
– | – | 130.1 | O=C1CC[C@@H](C(=O)O)N1 [PYROGLUTAMATE] | –
167.7 | 155.1 | 153.1 | Cc1cc2nc3[nH]c(=O)[nH]c(=O)c3nc2cc1C [LUMICHROME] | collision cross section (N2) ([2]; [M+H20-H]-): 160.2 Å²
– | 132 | 133.1 | CSCC[C@H](N)C(=O)O [METHIONINE] | –

From the C3SDB collision cross section collection
